Results from publication PMC8164657, “Intraoperative visualization of nerves using a myelin protein-zero specific fluorescent tracer” (EJNMMI Research, 2021).
≈ marks a conversion by molar mass, not a printed value. Residues, ends and D or L forms follow the SMILES beside them. *: point of attachment. X1 = CC1(C)C(/C=C/C=C/C=C2/N(CCCCS(=O)(=O)O)c3ccc(S(=O)(=O)O)cc3C2(C)C)=[N+](CCCCCC(=O)NCCN2C(=O)CC(*)C2=O)c2ccc(S(=O)(=O)[O-])cc21; X2 = CC1(C)C(=C/C=C/C=C/C2=[N+](CCCCS(=O)(=O)O)c3ccc(S(=O)(=O)[O-])cc3C2(C)C)N(CCCCCC(=O)NCCN2C(=O)CC(*)C2=O)c2ccc(S(=O)(=O)O)cc21; X3 = O=C(O)CN(CCN(CCN(CC(=O)O)CC(=O)O)CC(=O)NCCN1C(=O)CC(*)C1=O)CC(=O)O

Columns and labels:
[1] = test system: P0-expressing RT4 D6P2T myelinating Schwannoma cells; experiment: Fluorescence confocal microscopy staining of P0-expressing cells; format: cell-based; details: 1 µM, 1 h incubation at 4 °C, N = 3 per tracer
Protocol: Cells were trypsinized and seeded onto 35-mm culture dishes that contained a glass insert (MatTek co) on the day prior to the imaging experiment.
To all samples, 1 mL medium containing 1 µM Cy5-P0_1–25, Cy5-P0_21–45, Cy5-P0_41–65, Cy5-P0_61–85, Cy5-P0_81–105, Cy5-P0_95–120, or Cy5-P0_101–125 was added at one hour prior to imaging (incubation at 4 °C; N = 3 per tracer). Peptide solutions were sonicated for 20 s prior to addition, in order to prevent aggregation of the peptides in solution. Cy5-functionalized derivatives of a P0-specific antibody (Cy5-P0Ab-H60), the extracellular portion of P0 (Cy5-P0ex) as well as a non-P0-specific peptide (Cy5-NP-41) and non-functionalized Cy5-Maleimide were used as controls (1 µM). A lysosomal (lysotracker green; 2 µL/mL, DND-26, Thermo Fisher) and nuclear stain (Hoechst 33342; 1 mg/mL, Thermo Fisher) were added as means to localize the cell nucleus and intracellular lysosomes. […]
(§1) In vitro and ex vivo fluorescence confocal images were acquired using a Leica SP8 WL at sequential settings and 10 × or 63 × magnification. […] For blocking studies, quantification of the fluorescence signal intensity (N = 10 for blocked and non-blocked) in the obtained images was performed using ImageJ according to previously described methods. […]

Solubility in H2O = format: physicochemical; details: water; saturated solution in H2O at r.t., centrifugation, absorption of supernatant (UV/Vis)
[2] = Lipophilicity in octanol/water (LogPo/w); format: physicochemical; details: read-out: Lipophilicity (o/w), LogPo/w
Protocol: (§2) spectrometer (Pharmacia Biotech).
(§3) Serum protein binding and LogP o/w
(§4) functionalized Cy5 were determined as previously described (7).
(§5) The stability towards glutathione of Cy5-

Serum protein binding = format: in vitro ADME
Protocol: as §2, §3, §4, §5

[3] = Stability towards glutathione; format: physicochemical
Protocol: as §2, §3, §4, §5

[4] = serum
[5] = biological target: T1, P0 (RT4 D6P2T Schwannoma cells) (Rattus norvegicus, UniProt P06907); experiment: Blocking experiment with P0Ab; format: cell-based; details: 5 µL of 1 mg/mL P0Ab one hour prior to tracer; N = 10; ImageJ quantification; p = 0.001
T1 construct: was performed using P0-expressing RT4 D6P2T cells; host or cells: RT4 D6P2T Schwannoma cells
T1 sequence (P06907 30-248): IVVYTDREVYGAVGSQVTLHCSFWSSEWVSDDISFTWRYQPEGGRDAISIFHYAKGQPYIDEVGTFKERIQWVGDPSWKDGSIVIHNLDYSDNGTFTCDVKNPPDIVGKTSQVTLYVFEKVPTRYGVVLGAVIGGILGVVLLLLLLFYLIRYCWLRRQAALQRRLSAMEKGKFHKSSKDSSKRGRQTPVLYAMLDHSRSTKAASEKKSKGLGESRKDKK
Protocol: To all samples, 1 mL medium containing 1 µM Cy5-P0_1–25, Cy5-P0_21–45, Cy5-P0_41–65, Cy5-P0_61–85, Cy5-P0_81–105, Cy5-P0_95–120, or Cy5-P0_101–125 was added at one hour prior to imaging (incubation at 4 °C; N = 3 per tracer). Peptide solutions were sonicated for 20 s prior to addition, in order to prevent aggregation of the peptides in solution. Cy5-functionalized derivatives of a P0-specific antibody (Cy5-P0Ab-H60), the extracellular portion of P0 (Cy5-P0ex) as well as a non-P0-specific peptide (Cy5-NP-41) and non-functionalized Cy5-Maleimide were used as controls (1 µM). A lysosomal (lysotracker green; 2 µL/mL, DND-26, Thermo Fisher) and nuclear stain (Hoechst 33342; 1 mg/mL, Thermo Fisher) were added as means to localize the cell nucleus and intracellular lysosomes. For blocking studies, 5 µL of a 1 mg/mL solution of non-functionalized P0Ab was added to the cells one hour prior to addition of Cy5-P0_101–125. The synthesis of the control compounds is described in the methods section of Additional file 1: Synthesis of control compounds.
as §1

Biodistribution in mice = format: in vivo; details: mouse, CNS, total radioactivity; 10 MBq intravenous (tail vein), 4 h p.i.
Protocol: Synthesis and radiolabelling of DTPA-P0_101–125 with ^111In is described in Additional file 1: synthesis of control compounds. For quantitative assessment of the biodistribution of [^111In]In-DTPA-P0_101–125, 10 MBq of the labelled tracer was injected intravenously (tail vein). The percentage of the injected activity per gram of tissue (%IA/g) was assessed at 2 h post-injection as previously described. Excretion was defined as: (MBq present in animal at 24 h post-tracer administration/injected activity) * 100%.

## C[N+]1=C(/C=C/C=C/C=C2/N(CCCCCC(=O)NCCN3C(=O)C=CC3=O)c3ccccc3C2(C)C)C(C)(C)c2ccccc21.[Cl-] [Cy5-Maleimide]
[1]
  staining of P0-expressing Schwannoma cells: no staining was observed

## CC[C@H](C)[C@H](NC(=O)[C@H](CC(=O)O)NC(=O)[C@@H]1CCCN1C(=O)[C@@H]1CCCN1C(=O)[C@H](CC(N)=O)NC(=O)[C@H](CCCCN)NC(C)=O)C(=O)N[C@H](C(=O)NCC(=O)N[C@@H](CCCCN)C(=O)N[C@H](C(=O)N[C@@H](CO)C(=O)N[C@@H](CCC(N)=O)C(=O)N[C@H](C(=O)N[C@H](C(=O)N[C@@H](CC(C)C)C(=O)N[C@@H](Cc1ccc(O)cc1)C(=O)N[C@H](C(=O)N[C@@H](Cc1ccccc1)C(=O)N[C@@H](CCC(=O)O)C(=O)N[C@@H](CCCCN)C(=O)N[C@H](C(=O)N1CCC[C@H]1C(=O)N[C@H](C(=O)N[C@@H](CCCNC(=N)N)C(=O)N[C@@H](Cc1ccc(O)cc1)C(=O)N[C@@H](CSC1CC(=O)N(CCNC(=O)CCCCCN2C(=C/C=C/C=C/C3=[N+](CCCCS(=O)(=O)O)c4ccc(S(=O)(=O)[O-])cc4C3(C)C)C(C)(C)c3cc(S(=O)(=O)O)ccc32)C1=O)C(N)=O)[C@@H](C)O)C(C)C)C(C)C)[C@@H](C)O)C(C)C)[C@@H](C)O)C(C)C (stereo partly drawn) [Cy5-P0_101–125] (Ac-KNPPDIVGKTSQVTLYVFEKVPTRYC(X2)-NH2)
Solubility in H2O
  solubility thermodynamic: 172 µM (≈ 673 µg/mL)
[2]
  logP: -1.39 ± 0.09
Serum protein binding
  Serum protein binding: 89% ± 2%
[3]; 6 hr at 37 °C
  degradation when incubated with glutathione: 8%
[3]; buffer or solvent, 37 °C water bath, stock in H2O, HPLC UV/Vis
  remaining at 6 h: 92%
[4]
  remaining at 24 h: 99%

## CC[C@H](C)[C@H](NC(=O)[C@H](CC(=O)O)NC(=O)[C@@H]1CCCN1C(=O)[C@@H]1CCCN1C(=O)[C@H](CC(N)=O)NC(=O)[C@H](CCCCN)NC(C)=O)C(=O)N[C@H](C(=O)NCC(=O)N[C@@H](CCCCN)C(=O)N[C@H](C(=O)N[C@@H](CO)C(=O)N[C@@H](CCC(N)=O)C(=O)N[C@H](C(=O)N[C@H](C(=O)N[C@@H](CC(C)C)C(=O)N[C@@H](Cc1ccc(O)cc1)C(=O)N[C@H](C(=O)N[C@@H](Cc1ccccc1)C(=O)N[C@@H](CCC(=O)O)C(=O)N[C@@H](CCCCN)C(=O)N[C@H](C(=O)N1CCC[C@H]1C(=O)N[C@H](C(=O)N[C@@H](CCCNC(=N)N)C(=O)N[C@@H](Cc1ccc(O)cc1)C(=O)N[C@@H](CSC1CC(=O)N(CCNC(=O)CCCCC[N+]2=C(/C=C/C=C/C=C3/N(CCCCS(=O)(=O)O)c4ccc(S(=O)(=O)O)cc4C3(C)C)C(C)(C)c3cc(S(=O)(=O)[O-])ccc32)C1=O)C(N)=O)[C@@H](C)O)C(C)C)C(C)C)[C@@H](C)O)C(C)C)[C@@H](C)O)C(C)C (stereo partly drawn) [Cy5-P0_101–125] (Ac-KNPPDIVGKTSQVTLYVFEKVPTRYC(X1)-NH2)
[5]
  Cy5-related fluorescence remaining after blocking with P0Ab: 13.5 ± 7.1%

## CC[C@H](C)[C@H](NC(=O)[C@H](CC(=O)O)NC(=O)[C@@H]1CCCN1C(=O)[C@@H]1CCCN1C(=O)[C@H](CC(N)=O)NC(=O)[C@H](CCCCN)NC(C)=O)C(=O)N[C@H](C(=O)NCC(=O)N[C@@H](CCCCN)C(=O)N[C@H](C(=O)N[C@@H](CO)C(=O)N[C@@H](CCC(N)=O)C(=O)N[C@H](C(=O)N[C@H](C(=O)N[C@@H](CC(C)C)C(=O)N[C@@H](Cc1ccc(O)cc1)C(=O)N[C@H](C(=O)N[C@@H](Cc1ccccc1)C(=O)N[C@@H](CCC(=O)O)C(=O)N[C@@H](CCCCN)C(=O)N[C@H](C(=O)N1CCC[C@H]1C(=O)N[C@H](C(=O)N[C@@H](CCCNC(=N)N)C(=O)N[C@@H](Cc1ccc(O)cc1)C(=O)N[C@@H](CSC1CC(=O)N(CCNC(=O)CN(CCN(CC(=O)O)CC(=O)O)CCN(CC(=O)O)CC(=O)O)C1=O)C(N)=O)[C@@H](C)O)C(C)C)C(C)C)[C@@H](C)O)C(C)C)[C@@H](C)O)C(C)C (stereo partly drawn) [[^111In]In-DTPA-P0_101–125, metal not drawn] (Ac-KNPPDIVGKTSQVTLYVFEKVPTRYC(X3)-NH2)
Biodistribution in mice
  tissue uptake at 4 h: 0.12 ± 0.03 %ID/g
